Read-outs that look alike come from different tables or passages of the source.
Columns and labels:
[1] = test system: Stage III-V gametocytes (blood stage P. falciparum parasites); experiment: In vitro drug activity on gametocytes (AlamarBlue viability assay); assay type: cell-based, Plasmodium falciparum; settings: for EC50: read-out: Gametocyte EC50
In short: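 P. falciparum 3D7 stage III–V gametocytes (also HB3, Dd2), enriched by 50 mM N-acetylglucosamine and Percoll gradient, seeded at 20,000/well with compound for 72 h at 37° C, 5% CO2. AlamarBlue then added for 24 h; viability read as fluorescence (Ex 525, Em 598 nm).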

[2] = test system: Asexual parasites of P. falciparum strain 3D7; experiment: In vitro drug activity on asexual parasites (SYBR Green assay); assay type: cell-based, Plasmodium falciparum
In short: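 3D7 parasites at 0.5% parasitemia and 2% hematocrit were exposed to drugs (DMSO ≤0.5%) for 72 h under standard culture conditions, in duplicate. After freeze-thaw lysis, SYBR Green I lysis buffer was added for 30 min at room temperature, and fluorescence was read at 490/520 nm.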

[3] = Solubility at pH 7.4; assay type: physicochemical
[4] = PAMPA permeability; assay type: in vitro ADME; settings: PAMPA
[5] = target: mTOR (Homo sapiens, UniProt P42345); experiment: mTOR activity (no method described); assay type: biochemical
[6] = Microsomal stability (rat); assay type: in vitro ADME; settings: rat microsomes
[7] = P. falciparum stage III-V gametocytes, 72 h incubation, AlamarBlue
[8] = P. falciparum 3D7 asexual parasites, 72 h, SYBR Green

Compound | EC50 [1, 7] | EC50 [2, 8] | Sol @ pH 7.4 (ug/mL) [3] | PAMPA Permeability (×10^6 cm/s) [4] | EC50 [1] | EC50 [2] | mTOR [5] | Microsomal Stability (rat) T1/2 [6] | Sol @ pH 7.4 [3] | Gametocyte EC50 [1]
O=C(O)CN1Cc2cc(-n3c(=O)ccc4cnc5ccc(-c6ccc(Cl)cc6)cc5c43)ccc2C1=O [Compound 365] | 30600 nM | 482 nM | 55.9 ug/mL | <1.8 ×10^6 cm/s | – | – | – | – | – | –
CN(C)Cc1ccc(-c2ccc3ncc4ccc(=O)n(-c5ccc(N6CCOCC6)c(C#N)c5)c4c3c2)cc1 [Compound 5] | 508 nM | – | 7.03 ug/mL | 725.27 ×10^6 cm/s | – | – | – | – | – | –
CNC(=O)c1ccc(-n2c(=O)ccc3cnc4ccc(-c5ccc(Cl)cc5)cc4c32)c(C)c1 [Compound 112] | – | – | – | – | 179 nM | 76.8 nM | 3.581 µM | 5 min | 5 ug/mL | –
Cc1ccc(C#N)cc1-n1c(=O)[nH]c2cnc3ccc(-c4ccc(Cl)cc4)cc3c21 [Compound 399] | – | – | – | – | 522 nM | 219 nM | 100 µM | >30.0 min | <1.0 ug/mL | –
CN(C)Cc1ccc(-c2ccc3ncc4ccc(=O)n(-c5cccc(S(C)(=O)=O)c5)c4c3c2)cc1 [Compound 55] | 5340 nM | – | >71.00 ug/mL | 788.14 ×10^6 cm/s | – | – | – | 9.45 min | – | –
O=C(c1ccc(-n2c(=O)ccc3cnc4ccc(-c5ccc(Cl)cc5)cc4c32)cc1)N(C1CCCCC1)C1CC1 [Compound 142] | – | – | – | – | 50000 nM | 13800 nM | 46.17 µM | 1.4 min | <1.0 ug/mL | –
O=C1NCc2ccc(-n3c(=O)ccc4cnc5ccc(-c6ccc(Cl)cc6)cc5c43)cc21 [Compound 344] | 1500 nM | – | <1.0 ug/mL | 238.8 ×10^6 cm/s | – | – | – | 19.2 min | – | –
Nc1cc(-c2ccc3ncc4ccc(=O)n(-c5ccc(C(=O)N6CCOCC6)cc5)c4c3c2)ccc1Cl [Compound 113] | – | – | – | – | 75.9 nM | 29.9 nM | 1.37 µM | 13.6 min | <1.0 ug/mL | –
CC(=O)n1c(=O)n(-c2cccc(C#N)c2)c2c3cc(-c4ccc(Cl)cc4)ccc3ncc21 [Compound 405] | – | – | – | – | 666 nM | 298 nM | 100 µM | 2.4 min | <0.1 ug/mL | –
Cn1c(=O)n(-c2ccc(N3CCNCC3)c(C#N)c2)c2c3cc(-c4ccc(Cl)cc4)ccc3ncc21 [Compound 406] | – | – | – | – | 13.1 nM | 8.46 nM | 0.2165 µM | 19.4 min | <1 ug/mL | –
COC(=O)c1cc(-c2ccc3ncc4ccc(=O)n(-c5ccc(C(=O)N6CCOCC6)cc5)c4c3c2)ccc1Cl [Compound 152] | – | – | – | – | 4040 nM | 2200 nM | 0.7962 µM | 3.3 min | <1.0 ug/mL | –
C[C@@H]1CN(C(=O)c2ccc(-n3c(=O)ccc4cnc5ccc(-c6ccc(Cl)cc6)cc5c43)cc2)C[C@H](C)O1 [Compound 101] | – | – | – | – | 305 nM | 107 nM | 1.78 µM | 4.5 min | <1.0 ug/mL | –
O=C(c1ccc(-n2c(=O)ccc3cnc4ccc(-c5ccc(Cl)cc5)nc4c32)cc1)N1CCOCC1 [Compound 151] | – | – | – | – | 52.7 nM | 19.1 nM | 3.72 µM | 3.5 min | <1.0 ug/mL | –
Nc1ccc(-c2ccc3ncc4ccc(=O)n(-c5ccc6c(c5)CC(=O)N6)c4c3c2)cn1 [Compound 389] | 65.3 nM | 21.8 nM | <1.0 ug/mL | <9.7 ×10^6 cm/s | – | – | – | – | – | –
NCc1ccc(-c2ccc3ncc4ccc(=O)n(-c5ccc(C(=O)N6CCOCC6)cc5)c4c3c2)cc1 [Compound 111] | – | – | – | – | 285 nM | 241 nM | 1.135 µM | >30.0 min | 19.8 ug/mL | –
O=C(c1ccc(-n2c(=O)ccc3cnc4ccc(-c5ccc(Cl)c(O)c5)cc4c32)cc1)N1CCOCC1 [Compound 114] | – | – | – | – | 13.6 nM | 6.95 nM | 0.4313 µM | 23.3 min | <1.0 ug/mL | –
CCn1c(=O)n(-c2cccc(C#N)c2)c2c3cc(-c4ccc(Cl)cc4)ccc3ncc21 [Compound 440] | – | – | – | – | 2180 nM | 787 nM | 100 µM | >30.0 min | <1.0 ug/mL | –

Compound | EC50 [1, 7] | EC50 [2, 8] | Sol @ pH 7.4 (ug/mL) [3] | PAMPA Permeability (×10^6 cm/s) [4] | EC50 [1] | EC50 [2] | mTOR [5] | Microsomal Stability (rat) T1/2 [6] | Sol @ pH 7.4 [3] | Gametocyte EC50 [1]
COC(=O)CN1Cc2cc(-n3c(=O)ccc4cnc5ccc(-c6ccc(CN(C)C)cc6)cc5c43)ccc2C1=O [Compound 366] | 3760 nM | 1240 nM | 14.8 ug/mL | 47.8 ×10^6 cm/s | – | – | – | – | – | –
O=C(c1ccc(-n2c(=O)ccc3cnc4ccc(Br)cc4c32)cc1)N1CCOCC1 [Compound 337] | – | – | – | – | 6230 nM | 1570 nM | 3.229 µM | >30.0 min | >68.0 ug/mL | –
C[S+]([O-])c1ccc(-n2c(=O)ccc3cnc4ccc(-c5ccc(N)nc5)cc4c32)cc1 (stereo not shown) [Compound 81] | 33.9 nM | – | 10 ug/mL | 5.1 ×10^6 cm/s | – | – | – | – | – | –
O=C(c1ccc(-n2c(=O)ccc3cnc4ccc(-c5ccc(CCN6CCOCC6)cc5)cc4c32)cc1)N1CCOCC1 [Compound 182] | – | – | – | – | 1480 nM | 459 nM | 1.439 µM | 10.8 min | 1.1 ug/mL | –
O=C(c1ccc(-n2c(=O)ccc3cnc4ccc(-c5ccc(Cl)cc5)cc4c32)cc1)N1C2CCCC1CC2 [Compound 137] | – | – | – | – | 1000 nM | 188 nM | 1.518 µM | 1.6 min | <1.0 ug/mL | –
N#Cc1cccc(-n2c(=O)[nH]c3cnc4ccc(-c5ccc(Cl)cc5)cc4c32)c1 [Compound 397] | – | – | – | – | 232 nM | 268 nM | Inactive | >30.0 min | <1.0 ug/mL | –
O=C(O)c1cc(-c2ccc3ncc4ccc(=O)n(-c5ccc(C(=O)N6CCOCC6)cc5)c4c3c2)ccc1Cl [Compound 117] | – | – | – | – | – | 14400 nM | 4.734 µM | >30.0 min | >80.0 ug/mL | Inactive
O=C(c1ccc(-n2c(=O)ccc3c[n+]([O-])c4ccc(-c5ccc(Cl)cc5)cc4c32)cc1)N1CCOCC1 [Compound 148] | – | – | – | – | 4580 nM | 601 nM | 18.17 µM | >30.0 min | 21.8 ug/mL | –
Cn1c(=O)n(-c2cccc(C#N)c2)c2c3cc(-c4ccc(Cl)cc4)ccc3ncc21 [Compound 398] | – | – | – | – | 194 nM | 105 nM | 2.471 µM | >30.0 min | <1.0 ug/mL | –
CN(C)Cc1ccc(-c2ccc3ncc4ccc(=O)n(-c5ccc6c(c5)CCC(=O)N6C)c4c3c2)cc1 [Compound 358] | 2180 nM | 878 nM | >72.00 ug/mL | 1209.2 ×10^6 cm/s | – | – | – | – | – | –
Nc1ccc(-c2ccc3ncc4ccc(=O)n(-c5ccc6c(c5)CNC6=O)c4c3c2)cn1 [Compound 388] | 88.2 nM | 28.2 nM | 11.8 ug/mL | 2 ×10^6 cm/s | – | – | – | – | – | –
Nc1ccc(-c2ccc3ncc4ccc(=O)n(-c5ccc6c(c5)CCNC6=O)c4c3c2)cn1 [Compound 393] | 30.7 nM | 9.3 nM | 6.26 ug/mL | <1.10 ×10^6 cm/s | – | – | – | – | – | –
COc1cc(-c2ccc3ncc4c(c3c2)n(-c2cccc(C#N)c2)c(=O)n4C)ccc1Cl [Compound 403] | – | – | – | – | 262 nM | 125 nM | 100 µM | >30.0 min | 3.1 ug/mL | –
CCNC(=O)c1cc(-c2ccc3ncc4ccc(=O)n(-c5ccc(C(=O)N6CCOCC6)cc5)c4c3c2)ccc1Cl [Compound 150] | – | – | – | – | 6230 nM | 3820 nM | 7.873 µM | 2.4 min | 3.9 ug/mL | –
CCN(CC)Cc1ccc(-c2ccc3ncc4ccc(=O)n(-c5ccc6c(c5)CNC6=O)c4c3c2)cc1 [Compound 363] | 860 nM | 450 nM | 57.74 ug/mL | 8.76 ×10^6 cm/s | – | – | – | – | – | –
Cc1cc(C(=O)N2CCOCC2)ccc1-n1c(=O)ccc2cnc3ccc(-c4ccc(Cl)cc4)cc3c21 [Compound 110] | – | – | – | – | 139 nM | 40.8 nM | 9.459 µM | 2.2 min | 1.1 ug/mL | –
COc1cc(-c2ccc3ncc4c(c3c2)n(-c2cc(C#N)ccc2C)c(=O)n4C)ccc1Cl [Compound 407] | – | – | – | – | 104 nM | 52.4 nM | 50 µM | >30 min | <1 ug/mL | –

— US11753408B2, “Compounds and method for blocking transmission of malarial parasite” (The United States of America, as represented by the …, priority 2016, dated 2023)
